Laboratory results as given in BindingDB's records for doi:10.1016/0960-894X(96)00063-7 (1996).

Target: Squalene monooxygenase (Sus scrofa)
Test: Compound was evaluated for the inhibition of pig liver microsomal squalene epoxidase.

IC50: 100 nM
SMILES: CCN(C/C=C/C#CC(C)(C)C)Cc1cccc(NC[Si](C)(C)c2ccccc2C)c1 [(3-{[((E)-6,6-Dimethyl-hept-2-en-4-ynyl)-ethyl-amino]-methyl}-phenyl)-[(dimethyl-o-tolyl-silanyl)-methyl]-amine]
